pKi: −log10 of the molar value. Structures can show the parent of a compound that is named as a salt. Where two headings read alike, the source gives them in different places.
Assays:
mu receptor = target: T1, mu receptor (Rattus norvegicus, UniProt P33535); assay: opioid receptor binding assay, [3H] NAL (tritiated naloxone), mu receptor; set-up: species or system rat (Male Sprague Dawley), brain minus cerebellum; settings: for inhibition at 0.01 µM / inhibition at 0.1 µM: 20 min
T1 construct: rat whole brain minus cerebellum for mu was homogenized; from tissue; host or cells: brain of male Sprague Dawley rats, whole brain minus cerebellum, homogenate fraction
T1 sequence (P33535 whole entry): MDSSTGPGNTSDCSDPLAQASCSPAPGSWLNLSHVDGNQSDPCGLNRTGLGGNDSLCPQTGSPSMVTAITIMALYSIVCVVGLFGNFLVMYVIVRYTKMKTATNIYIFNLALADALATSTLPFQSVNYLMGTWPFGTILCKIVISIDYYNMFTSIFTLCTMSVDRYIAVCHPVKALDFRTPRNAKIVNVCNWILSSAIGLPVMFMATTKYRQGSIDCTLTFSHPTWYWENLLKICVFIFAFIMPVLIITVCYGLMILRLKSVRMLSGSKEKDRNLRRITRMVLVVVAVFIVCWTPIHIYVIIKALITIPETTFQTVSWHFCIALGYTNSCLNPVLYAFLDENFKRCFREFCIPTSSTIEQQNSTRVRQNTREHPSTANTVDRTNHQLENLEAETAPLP
Outline: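 Displacement of [3H]naloxone was measured on rat whole brain minus cerebellum membranes, preincubated 20 min and incubated 20 min at 37° C, with filtration separating bound ligand. Ki was derived from IC50 and ligand KD. Percent displacement was also recorded at 10 nM and 100 nM test compound.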

[1] = target: T2, peripheral opioid receptors (Mus musculus, UniProt P42866); assay: precipitated diarrhea in morphine-maintained mice (peripheral opioid activity) and comparison with the writhing test; format: in vivo; set-up: ED50 (diarrhea): unit not given beside the values; settings: for Ratio (AD50 mouse writhing test / ED50 mouse diarrhea test): higher ratio = greater relative antagonism of peripheral opioid receptors; for ED50: mouse, 0.5 h; for ED50 / ED50 (diarrhea): morphine-maintained mice, antagonist subcutaneous or oral, 30 min observation; for ED50 (diarrhea): 30 min
T2 construct: Mice maintained (6 mice/cage) on 0.01M saccharin water with 1 g/1 morphine sulfate; from tissue; host or cells: living morphine-maintained mice (in vivo test; endogenous receptor)
T2 sequence (P42866 whole entry): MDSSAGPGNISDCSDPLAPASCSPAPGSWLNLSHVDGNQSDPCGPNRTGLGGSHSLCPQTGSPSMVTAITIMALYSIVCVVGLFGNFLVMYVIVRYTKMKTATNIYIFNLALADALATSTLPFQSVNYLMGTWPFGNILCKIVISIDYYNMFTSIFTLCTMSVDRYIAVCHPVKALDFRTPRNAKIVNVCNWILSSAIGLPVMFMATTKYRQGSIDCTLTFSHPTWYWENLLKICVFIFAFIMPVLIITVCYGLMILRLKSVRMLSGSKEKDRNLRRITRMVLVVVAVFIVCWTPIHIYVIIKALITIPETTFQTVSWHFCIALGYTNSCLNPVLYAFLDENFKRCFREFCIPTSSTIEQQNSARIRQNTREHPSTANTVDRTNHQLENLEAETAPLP
Outline: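 Morphine-dependent mice (1 g/l morphine sulfate in drinking water ≥10 days, withdrawn 45 min before dosing) received antagonist subcutaneously or orally, 5 mice/dose. Diarrhea (and jumping) were scored over 30 min and doses lowered to find the diarrhea threshold. Peripheral selectivity was taken as writhing AD50 divided by diarrhea ED50.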

opioid receptor = target: T3, opioid receptor (Mus musculus, UniProt P42866); assay: mouse writhing analgesis test: block of morphine-induced analgesia; format: in vivo, CF-1 male mice; set-up: unit not given here; settings: dose of antagonist that reduced the inhibition of writhing produced by 1.25 mg/kg morphine sulfate to 50%, subcutaneous, 20 min before acetic acid
T3 construct: Five CF-1 male mice (Charles River, Portage, Mich.); from tissue; host or cells: living CF-1 male mice (in vivo test; endogenous receptor)
T3 sequence (P42866 whole entry): as above
Outline: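 Male CF-1 mice (~20 g, fasted overnight, n=5) dosed subcutaneously 20 min before i.p. 0.6% acetic acid; writhes counted for 10 min starting 5 min post-injection. Antagonism measured as blockade of morphine-induced inhibition of writhing, percent versus vehicle controls; ED50 defined as 50% writhing inhibition.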

[2] = read-out: % displacement at 10 nM, 10 nM test compound, [3H] naloxone 0.5 nM
[3] = read-out: % displacement at 100 nM, 100 nM test compound, [3H] naloxone 0.5 nM
[4] = 10 nM test compound, [3H] naloxone 0.5 nM, read-out: % displacement at 10 nM
[5] = read-out: % displacement at 100 nM
[6] = 100 nM test compound, [3H] naloxone 0.5 nM, read-out: % displacement at 100 nM
[7] = read-out: % displacement at 10 nM

Row | SMILES | Ratio (AD50 mouse writhing test / ED50 mouse diarrhea test) [1] | ED50 [1] | AD50 (opioid receptor) | inhibition at 0.01 µM (mu receptor; [4]) | inhibition at 0.1 µM (mu receptor; [6]) | further results
1 | C[C@H]1CN(CC(Cc2ccccc2)C(=O)NCC(=O)NCC(=O)NCc2ccccc2)CC[C@@]1(C)c1cccc(O)c1 (relative stereo) [Example 73] | 11 | 1.73 mg/kg | 20 |  |  | pKi (mu receptor): 8.74; inhibition at 0.01 µM (mu receptor; [2]): 84%; inhibition at 0.1 µM (mu receptor; [3]): 90%
2 | CCOC(=O)CN(C)C(=O)CNC(=O)C(Cc1ccccc1)CN1CC[C@@](C)(c2cccc(O)c2)[C@@H](C)C1 (relative stereo) [Example 75] | 71 | 0.073 mg/kg | 5.2 |  |  | pKi (mu receptor): 8.94; inhibition at 0.01 µM (mu receptor; [2]): 90%; inhibition at 0.1 µM (mu receptor; [3]): 99%
3 | CCNC(=O)CNC(=O)CNC(=O)C(Cc1ccccc1)CN1CC[C@@](C)(c2cccc(O)c2)[C@@H](C)C1 (relative stereo) [Example 77] | > 31 | 1.31 mg/kg | > 40 |  |  | pKi (mu receptor): 8.87; inhibition at 0.01 µM (mu receptor; [2]): 88%; inhibition at 0.1 µM (mu receptor; [3]): 95%
4 | COC(=O)COC(=O)CNC(=O)C(Cc1ccccc1)CN1CC[C@@](C)(c2cccc(O)c2)[C@@H](C)C1 (relative stereo) [Example 85] | 190 | 0.05 mg/kg | 9.5 | 93% |  | inhibition at 0.1 µM (mu receptor; [5]): 98%
5 | CCCCCOC(=O)CNC(=O)C(Cc1ccccc1)CN1CC[C@@](C)(c2cccc(O)c2)[C@@H](C)C1 (relative stereo) [Example 86] | > 2353 | 0.017 mg/kg | > 40 | 74% | 91% | 
6 | C[C@H]1CN(CC(Cc2ccccc2)C(=O)NCC(=O)OCC(N)=O)CC[C@@]1(C)c1cccc(O)c1 (relative stereo) [Example 87] | 27 | 0.71 mg/kg | 19 | 94% | 99% | 
7 | CNC(=O)COC(=O)CNC(=O)C(Cc1ccccc1)CN1CC[C@@](C)(c2cccc(O)c2)[C@@H](C)C1 (relative stereo) [Example 88] | 193 | 0.07 mg/kg | 13.5 | 93% | 99% | 
8 | CCNC(=O)COC(=O)CNC(=O)C(Cc1ccccc1)CN1CC[C@@](C)(c2cccc(O)c2)[C@@H](C)C1 (relative stereo) [Example 89] | < 1 | > 10 mg/kg | 6.0 | 94% | 99% | 
9 | C[C@H]1CN(CC(Cc2ccccc2)C(=O)NCC(=O)OCC(=O)N(C)C)CC[C@@]1(C)c1cccc(O)c1 (relative stereo) [Example 90] | 22 | 0.1 mg/kg | 2.2 | 93% | 99% | 
10 | C[C@H]1CN(CC(Cc2ccccc2)C(=O)NCC(=O)NCC2CCCCC2)CC[C@@]1(C)c1cccc(O)c1 (relative stereo) [Example 91] | 8 | 0.5 mg/kg | 4.0 | 69% |  | inhibition at 0.1 µM (mu receptor; [5]): 94%
11 | COC1CCC(OC(=O)CNC(=O)C(Cc2ccccc2)CN2CC[C@@](C)(c3cccc(O)c3)[C@@H](C)C2)CC1 (relative stereo) [Example 92] | 1540 | 0.005 mg/kg | 7.7 | 85% |  | inhibition at 0.1 µM (mu receptor; [5]): 97%
12 | C[C@H]1CN(CC(Cc2ccccc2)C(=O)NCC(=O)OCC(=O)NCc2ccccc2)CC[C@@]1(C)c1cccc(O)c1 (relative stereo) [Example 93] | 3625 | 0.008 mg/kg | 29.0 | 81% | 95% | 
13 | CC(=O)OC(C)OC(=O)CNC(=O)C(Cc1ccccc1)CN1CC[C@@](C)(c2cccc(O)c2)[C@@H](C)C1 (relative stereo) [Example 94] | 2222 | 0.009 mg/kg | 20 | 76% | 95% | 
14 | Cc1oc(=O)oc1COC(=O)CNC(=O)C(Cc1ccccc1)CN1CC[C@@](C)(c2cccc(O)c2)[C@@H](C)C1 (relative stereo) [Example 95] | 14 | 0.19 mg/kg | 2.7 | 79% |  | inhibition at 0.1 µM (mu receptor; [5]): 94%
15 | CCOC(=O)C(Cc1ccccc1)CN1CC[C@@](C)(c2cccc(OC)c2)[C@@H](C)C1 (single isomer, unassigned) [Example 78B] | 29 | 0.055 mg/kg | 1.6 | 0% | 2% | 
16 | COc1cccc([C@]2(C)CCN(CC(Cc3ccccc3)C(=O)O)C[C@@H]2C)c1 (single isomer, unassigned) [Example 79] | 13 | 0.13 mg/kg | 1.7 | 0% | 15% | 
17 | CNC(=O)C(Cc1ccccc1)CN1CC[C@@](C)(c2cccc(OC)c2)[C@@H](C)C1 (single isomer, unassigned) [Example 80] | 24 | 0.16 mg/kg | 3.9 | 0% | 37% | 
18 | CCOC(=O)CNC(=O)C(Cc1ccccc1)CN1CC[C@@](C)(c2cccc(OC)c2)[C@@H](C)C1 (single isomer, unassigned) [Example 81] | 4 | 3.28 mg/kg | 13.2 | 21% | 55% | 
19 | CNC(=O)CNC(=O)C(Cc1ccccc1)CN1CC[C@@](C)(c2cccc(OC)c2)[C@@H](C)C1 (single isomer, unassigned) [Example 82] | 17 | 0.055 mg/kg | .95 | 31% | 73% | 
20 | CCNC(=O)CNC(=O)C(Cc1ccccc1)CN1CC[C@@](C)(c2cccc(OC)c2)[C@@H](C)C1 (single isomer, unassigned) [Example 83] | 2 | 0.04 mg/kg | 0.71 | 52% | 83% | 
21 | CC(C)COC(=O)CNC(=O)C(Cc1ccccc1)CN1CC[C@](C)(c2cccc(O)c2)[C@H](C)C1 (single isomer, unassigned) [Example 98D] |  |  |  |  |  | % displacement at 100 nM (mu receptor): 96%; inhibition at 0.01 µM (mu receptor; [7]): 80%; inhibition at 0.01 µM (mu receptor; [2]): 57%; inhibition at 0.1 µM (mu receptor; [3]): 92%; Ratio (AD50 mouse writhing test / ED50 mouse diarrhea test) ([1]; listed as 98D*): 4; Ratio (AD50 mouse writhing test / ED50 mouse diarrhea test) ([1]; listed as 98D**): 255; ED50 (diarrhea) ([1]; listed as 98D**): 0.06; ED50 (diarrhea) ([1]; listed as 98D*): 0.76; AD50 (opioid receptor; listed as 98D**, 1.25 mg/kg): 15.3; AD50 (opioid receptor; listed as 98D*, 1.25 mg/kg): 2.9
22 | C[C@@H]1CN(CC(Cc2ccccc2)C(=O)NCC(=O)O)CC[C@]1(C)c1cccc(O)c1 (single isomer, unassigned) [Example 98E] | 62 | 0.1 mg/kg | 6.2 |  |  | inhibition at 0.01 µM (mu receptor; [7]): 69%; inhibition at 0.1 µM (mu receptor; [5]): 87%
23 | C[C@H]1CN(CC(Cc2ccccc2)C(=O)NCC(=O)O)CC[C@@]1(C)c1cccc(O)c1 (single isomer, unassigned; (+)) [Example 97E, monohydrate] | 127 | 0.07 mg/kg | 8.9 |  |  | inhibition at 0.01 µM (mu receptor; [7]): 80%; inhibition at 0.1 µM (mu receptor; [5]): 90%
24 | C[C@H]1CN(CC(CC2CCCCC2)C(=O)NCCC(=O)O)CC[C@@]1(C)c1cccc(O)c1 (stereo partly drawn) [Example 35, 3-[[3-[4-(3-hydroxyphenyl)-3,4-dimethyl-1-piperidinyl]-2-(cyclohexylmethyl)-1-oxopropyl]-amino]propanoic acid hydrochloride] | 667 | 0.06 mg/kg | 40 |  |  | pKi (mu receptor): 9.27; inhibition at 0.01 µM (mu receptor; [2]): 98%; inhibition at 0.1 µM (mu receptor; [3]): 100%

— patent publication US5250542A, “Peripherally selective piperidine carboxylate opioid antagonists” (Eli Lilly and Company, priority 1992, dated 1993)
